Reference: patent US10577610B2, “EpCAM aptamers and conjugates thereof” (Deakin University, priority 2015, dated 2020)
[invdT] = inverted (3'-3') thymidine; {TYE665} = TYE665 fluorescent dye

Tests used:
bEnd.3 cells = assay: Confocal microscopy internalisation into bEnd.3 cells; type: cell-based, mouse; settings: for Internalisation into TfR-expressing bEnd.3 cells: conjugate aptamers, 400 nM, two hour, confocal microscopy
Description: Confocal microscopy was used as a means of visualising aptamer internalisation into the cells. Both aptamers and cells were prepared in the same manner as described above before they were mixed and allowed to incubate at 37° C. The aptamers were used at a concentration of 200 nM and were allowed to incubate for 60 minutes. The concentration for the conjugate (bifunctional) aptamers was 400 nM and these were incubated with the cells for 120 minutes. Ten minutes prior to end of incubation, 2 μL of Hoechst nuclear stain (10 mg/mL) was added to cells. Cells were then washed three times with 100 μL of PBS as described above and resuspended in 20 μL (8×10^5 cells/well) in an 8-chambered slide (Lab-Tek II, Nunc) for visualisation. Cells were incubated in blocking buffer for 60 mins followed by resuspension in binding buffer containing the aptamer and incubated for 60 mins at 37° C. […] The aptamer solution was removed and the cells were washed three times for 5 min each in PBS prior to visualisation using a FluoView FV10i laser scanning confocal microscope (Olympus). In order to assess the mechanism of cellular uptake, the internalisation of a phycoethyrin-labelled rat anti-mouse TfR monoclonal antibody (R17217; Abcam) was also visualised by confocal microscopy by co-incubating it with the aptamer at 1 μg/mL for 30 minutes. The uptake of these aptamers into cells is an important factor in determining the potential for use as therapeutics. The anti-transferrin receptor aptamers generated herein are designed to pass through the BBB via the active transcytosis pathway. […] This was done by visualising the internalisation of aptamers at a concentration of 200 nM into bEnd.3 and MOLT4 cells over the course of a one hour incubation with confocal microscopy. Aptamers are relatively new molecular tools in the field of diagnostics and therapeutics. […] The performance of the aptamer with a corresponding antibody was compared by examining uptake in bEnd.3 cells. This was done by incubating the highest affinity aptamer, TfR3, and the anti-TfR antibody with the bEnd.3 cells and observing them via confocal microscopy. The anti-TfR aptamers generated herein are intended to be used as drug delivery agents capable of crossing the blood-brain barrier (BBB). In an in vivo or clinical setting, these would need to pass from the bloodstream and into the BBB endothelial monolayer before exiting on the other side into the brain parenchyma. Given this, it is vital that these are not only capable of entered cells via active transport processes, but can also exocytose out again. Therefore, a time course internalisation experiment was conducted in order to establish whether or not the aptamers are being retained in the cells or are returning to the extracellular fluid. […]

[1] = test system: in vitro BBB model (bEnd.3 endothelial monolayer); assay: Aptamer permeability across in vitro blood brain barrier model (HEY-bEnd.3 co-culture); type: in vitro ADME, mouse; settings: 2 μM in upper compartment, three hours
Description: In order to assess the ability of the TfR containing aptamers to pass through an endothelial cell monolayer via receptor mediated transport (RMT) an in vitro model of the BBB was produced as shown schematically in FIG. 1. Transwell inserts (polyethylene terephthalate (PET) with 0.4 μm diameter pores) within a 24-well plate (Corning) were incubated with 100 μL of 50% Collagen IV for 2 hours at 37° C. Flasks of bEnd.3 cells were trypsinised to generate a single-cell suspension, and counted using a haemocytometer and trypan blue to ensure that a sufficient proportion of cells were alive. These were then centrifuged and resuspended in media. Wells were filled with 800 μL of serum-free media and transwell inserts were placed on top. Cells were then seeded in 90 μL of serum-free media at a density of 1×10^6 cells/cm^2 and were allowed to incubate at 37° C. Cells were allowed to settle for 6 hours and then 60 μL of enhanced media (DMEM low glucose: Ham's F12 (1:1), (both serum-free) 550 nM hydrocortisone, 32 μM cAMP, 17.5 μM aminophylline, 1 μM retinoic acid, 5 μg/mL insulin, 2.75 μg/mL transferrin, 2.5 ng/mL sodium selenite, 100 ng/mL bFGF (basic fibroblast growth factor), 20 ng/mL EGF (epidermal growth factor)) (Wuest D M et al (2013) Journal of Neuroscience Methods 212(2):211-21) was added to the transwells. Media in both compartments were replaced the next day with enhanced media in order to supplement the growth of the monolayer.
HEY cells were subcultured and counted using a haemocytometer and trypan blue in order to assess the percentage of living cells. Subsequently, they were diluted in DMEM media at a concentration of 87 500 cells/mL. Media was removed from the bottom compartment of the in vitro BBB model and replaced with 800 μL of the HEY cell solution, seeding at 70 000 cells per well. These were allowed to incubate overnight. Next, media was removed from the upper compartment of the transwells and 100 μL of aptamer at a concentration of 2 μM was pipetted on top of the transwell membrane. […]

Substance | Internalisation into TfR-expressing bEnd.3 cells (bEnd.3 cells) | Internalisation into HEY cells in bottom compartment after incubation on in vitro BBB model [1] | Co-localisation with the anti-TfR antibody (bEnd.3 cells; bEnd.3 cells, co-incubation with antibody R17217)
Bi1: aptamer conjugate based on TfR1 and scrambled EpCAM binding loop, negative control, SEQ ID NO:8 (GCGCGTGCACGCGCTAACGGATTCCTTTTCCGN; listed as DNA, further chemistry not given here) | not | not observed inside HEY cells | –
5′-GCGCGGGCCCGCGCTAACGGAGGTTGCGTCCGT-3′ (GCGCGGGCCCGCGCTAACGGAGGTTGCGTCCGN; DNA sequence of aptamer conjugate Bi2; (33)..(33) n is t or 3′ inverted deoxythymidine (dT)) | internalised | observed to become internalised into the HEY cells | –
5′-GCGCGGTACCGCGCTAACGGAGGTTGCGTCCGT-3′ (GCGCGGTACCGCGCTAACGGAGGTTGCGTCCGN; listed as DNA, chemistry not given here) [Bi3] | internalised | observed to become internalised into the HEY cells | –
TfR3: version of TfR1 with scrambled binding loop sequence, SEQ ID NO:6 (DNA GCGTGGTACCACGC; DNA, 5' {TYE665}, 3' [invdT], backbone not given here) | – | – | observed
